{"source": "paper PMC5317004", "about": "(Scientific Reports, 2017)", "tested_on": "chimeric α7-GluClβR", "assay": "IVM added after activation by ACh: kinetics and extent of current decline (whole-cell patch clamp)", "format": "cell-based, chick nAChR α7 / C. elegans GluClβ", "procedure": "Following a further wash (for a minute), the same cell was challenged again with a 5-μM-IVM solution (in 0.01% DMSO; red bar, arrow and trace). Recordings were performed at −60 mV. (B) Time constant of current decline (τd). Values of τd were determined by exponential fits to the declining phase of the currents using Eq. 3. […] Error bars correspond to SEM of N = 6 and N = 5 cells for recordings at −60 mV and −20 mV, respectively. Paired, two-tailed Student’s t-tests indicate that for not significant (“ns”) P > 0.3, and ** 0.001 < P < 0.005.\nFigure 8 The inhibition of ACh-elicited currents by addition of IVM is irreversible. […] (B) Representative currents for the same experiment as in A, but with the exception of IVM (0.5 μM) addition after the ACh-elicited current reached to its peak (IP1). Inset, magnification of the indicated segment of the current trace. In both panels A and B, black bars above the current traces indicate ACh or IVM applications. […] Error bars correspond to SEM. Unpaired, two-tailed Student’s t-tests indicate *** P < 0.0001.\nThe declining phase of the currents was fitted with an exponential time course to give the time constant of current decline by using equation 3, […]\nI is the current, IP is the peak of the current, IS is the steady state current, t is the time, and τ is the time constant of current decline. […]\nSupplementary Materials and Methods\nThe structural mo del of the chi meric α7-GluClβR was built based on th e methodologies published previously1,2, and the sequence of the chimeric subunit is presented in […]\nDNA construct and preparation of cells for electrophysiological experiments The cDNA encoding the α7-GluClβ chimeric subunit was generated as described previously3, and was cloned into a pcDNA3.1 vector.\nChinese hamster ovary cells (CHO-K1, ATCC via Biological Industries Israel, Beit Haemek Ltd.) were cultured as performed previously2 in Dulbecco 's Modified E agle Med iu m (DMEM) containing 10% fetal calf serum (Biological Industries Israel Beit Haemek Ltd.), 2 mM glutamax, 100 Units/ml penicillin G and 100 μg/ml streptomycin, and grown in 5% CO2 at 37°C under 90-95% hu midity . CHO cells were seeded on glass coverslips (13-mm diameter) placed in a 24-multiwell plate. For the expression of the α7-GluClβR, cells were transiently transfected with the pcDNA3.1 plasmid containing the receptor’s ORF (200-600 ng per well) using transit-LT1 transfection reagent (Mirus, USA), according to the manufacturer’s protocol. pIRES-CD8 plas mid (200 ng per well) was also added to enable visualization of the ex pressing cells by beads coated with anti-CD8 antibodies (Invitrogen). For the expression of GluClβ ho mo mers, we used the pcDNA3.1 plas mid containing the GluClβ-subunit ORF (600-1000 ng per well), pIRES-CD8 plas mid (200 ng per well) and th e X-tremeGENE HP DNA Transfection Reagent (Roche Life Science). Recordings were performed 48-72 hours following transfection.\nWhole-cell patch clamp recordings\nRecordings were performed in the aforementioned CHO cells, as previously described1,2. Whole-cell patch clamp experiments were performed with normal external solution (NES) contained (in millimolar): 140 NaCl, 2.8 KCl, 2 CaCl2, 2 MgCl2, 10 glucose and 10 HEPES, adjusted to pH 7.35 with NaOH (310 mOsM). The pipette solution contained […]\n(in millimolar): 130 KCl, 4 MgCl2, 4 Na2ATP, 1 EGTA and 10 HEPES, adjusted to pH 7.35 with KOH (290 mOsM). The osmolarity of these solutions was maintained by adding sucrose.\nThe electrode resistance was 6-10 MΩ when filled with the pipette solution. External solutions were applied onto the cell by using the VC-77SP fast-step system (Warner Instruments, CT, USA) combined with N2 pressure of 3-4 psi to produce laminar flow of the external solution onto the patched cell. All measurements were performed at 25 °C. The currents w ere measured with an Axopatch 200B patch-clamp amplifier (Molecular Devices, Sunnyvale, CA) and a Digidata 1440A interface (Molecular Devices). […]", "key": {"[1]": {"details": "30 μM ACh + 0.5 μM IVM, 9.6 sec, N = 10"}}}
{"smiles": "CC[C@H](C)[C@H]1O[C@]2(CC[C@@H]1C)C[C@@H]1C[C@@H](C/C=C(\\C)[C@@H](O[C@H]3C[C@H](OC)[C@@H](O[C@H]4C[C@H](OC)[C@@H](O)[C@H](C)O4)[C@H](C)O3)[C@@H](C)/C=C/C=C3\\CO[C@@H]4[C@H](O)C(C)=C[C@@H](C(=O)O1)[C@]34O)O2", "note": "[IVM, Ivermectin]", "values": [{"measurement": "reduction of time constant of current decline (τd)", "setting": "5 μM IVM added after peak of 350 μM ACh response, −60 mV and −20 mV", "result": "more than two folds"}, {"measurement": "τd1 amplitude percentage (%A)", "setting": "30 μM ACh + 0.5 μM IVM", "result": "55 ± 10", "unit": "%"}, {"measurement": "τd2 amplitude percentage (%A)", "setting": "30 μM ACh + 0.5 μM IVM", "result": "45 ± 10", "unit": "%"}, {"measurement": "τd1, time constant of current decline", "setting": "[1]", "result": "3370 ± 318", "unit": "ms"}, {"measurement": "τd2, time constant of current decline", "setting": "[1]", "result": "987 ± 120", "unit": "ms"}, {"measurement": "time between the start of application and the onset of effect", "setting": "six experiments as in Fig. 5A, 350 μM ACh, 5 μM IVM", "result": "132 ± 24", "unit": "milliseconds"}]}
